Test results from patent US7628979B1, “Use of calco oil blue V in bait formulations for marking and controlling subterranean termites” (The United States of America as represented by the …, priority 2005, dated 2009).

Tests used:
[1] = system: Eastern subterranean termites; assay: In-field marking and control, bait at infested trees, site 3; assay type: in vivo; conditions: Site 3 (Ligastrum), 250 ppm bait
Source text: (§1) Formosan subterranean termite and native subterranean termite infested trees (Water Oaks and Legastrums) in New Orleans, La. were chosen for this study. Three sites were selected located at the Southern Regional Research Center campus. Site 1 was located near the service building next to an old water oak tree, site 2 was located in the compound area near ligastrum trees, and site 3 near ligastrum trees outside the compound area. Sites 1 and 2 were active with Formosan subterranean termites and site 3 with Eastern subterranean termites.
(§2) The colored bait matrix at 250 ppm was encapsulated as described above and placed directly in the base of the trees where termites were foraging, making sure that the encapsulated colored bait matrix was covered with soil or with a piece of wood or brick on top of it to prevent desiccation. The bait was periodically inspected for consumption and termite activity. The field study started in early August and was completed by the end of the following June. During winter (December-February) termite activity decreased considerably, but by April termite activity and foraging resumed and the blue colored matrix was replaced by bait formulation containing 250 ppm of chitin synthesis inhibitors to kill the colonies. Diflubenzuron was used in 2 of the sites and chlorfluazuron was used in the remaining site.

[2] = system: Formosan subterranean termite workers; assay: Laboratory foraging-box bait test, groups of 1000 termite workers (colorant:CSI dose determination); assay type: in vivo, Coptotermes formosanus; conditions: for Groups of 1000 termite workers alive: of 12 boxes
Procedure: Under a laminar flow hood, 66 g colored cellulose powder at concentration of 50, 100, 225, 250, 500, or 750 ppm (0.010, 0.020, 0.045, 0.050, 0.100, or 0.150 g, respectively) from example 1 was mixed with 135 ml of sterile nutritional supplement (formulated as in example 1) in a 250 ml sterile glass beaker (prepared as reported by Rojas, M. G. and Morales-Ramos, J. A., “Bait matrix for delivery of chitin synthesis inhibitors to the Formosan subterranean termite [Isoptera: Rhinotermitidae],” J. Econ. Entomol., 94(2): 506-510 (2001)). A dose of 175 ppm of diflubenzuron was added to the formulations containing 50 and 100 ppm of calco oil blue. A lower dose of 50 ppm of diflubenzuron was added to the formulations containing 225 and 500 ppm of calco oil blue. The mixture was manually homogenized using a stainless steel spatula. To encase the bait matrix, tubes made of fibrous casing material (#124B; L.E.M. Products, Inc., Miamitown, Ohio) were cut into 150 mm long portions as reported by Rojas and Morales-Ramos (2001) supra. Fifty grams of bait matrix containing the blue colorant was compacted into one end of the inlet tube, at which point the open end of the inlet tube was closed with a rubber band. The bait casing was placed inside the foraging box adjacent to a 10 g piece of pine wood, taking care that they were partially covered with the sand. Control bait matrix was prepared minus blue colorant, and presented in the same was as the treatment matrix to Formosan subterranean termite workers taken from four different colonies, with 3 boxes per locality totaling twelve boxes of 1000 termites per treatment (Rojas and Morales-Ramos supra). All the experimental boxes were maintained under darkness at 27±1° C. and 90±2% relative humidity. Observations were done every 72 hours until all the termites died. The time to reach 100% mortality was measured and recorded. Mean comparisons among treatments and control were conducted.

[3] = system: Formosan subterranean termites; assay: In-field marking and control, bait at infested trees, sites 1 and 2; assay type: in vivo; conditions: for Bait consumption: 250 ppm bait
Source text: as §1, §2

SMILES: CCCCC(CC)CNc1ccc(NCC(CC)CCCC)c2c1C(=O)c1ccccc1C2=O (centres unmarked) [Calco oil blue V, 9,10-anthracenedione, 1,4-bis[(2-ethylhexyl)amino]]
- Bait consumption ([1]; day 7): 0 g
- Bait consumption ([1]; day 14): 200 g
- Bait consumption ([1]; day 21): 150 g
- Bait consumption ([1]; day 27): 150 g
- Bait consumption ([1]; day 46): 100 g
- Bait consumption ([1]; day 56): 0 g
- Bait consumption ([1]; day 73): 0 g
- Bait consumption ([1]; day 83): 0 g
- Bait consumption ([1]; day 102): 0 g
- Bait consumption ([1]; day 159): 0 g
- Bait consumption ([1]; day 221): 0 g
- Bait consumption ([1]; day 251): 0 g
- Bait consumption ([1]; day 281): 0 g
- Groups of 1000 termite workers alive ([2]; 1 Month, Calco oil blue V 50 ppm + Diflubenzuron 175 ppm): 11
- Groups of 1000 termite workers alive ([2]; 1 Month, Calco oil blue V 100 ppm + Diflubenzuron 175 ppm): 9
- Groups of 1000 termite workers alive ([2]; 1 Month, Calco oil blue V 225 ppm + Diflubenzuron 50 ppm): 7
- Groups of 1000 termite workers alive ([2]; 1 Month, Calco oil blue V 500 ppm + Diflubenzuron 50 ppm): 9
- Groups of 1000 termite workers alive ([2]; 2 Months, Calco oil blue V 50 ppm + Diflubenzuron 175 ppm): 10
- Groups of 1000 termite workers alive ([2]; 2 Months, Calco oil blue V 100 ppm + Diflubenzuron 175 ppm): 4
- Groups of 1000 termite workers alive ([2]; 2 Months, Calco oil blue V 225 ppm + Diflubenzuron 50 ppm): 2
- Groups of 1000 termite workers alive ([2]; 2 Months, Calco oil blue V 500 ppm + Diflubenzuron 50 ppm): 4
- Groups of 1000 termite workers alive ([2]; 3 Months, Calco oil blue V 50 ppm + Diflubenzuron 175 ppm): 5
- Groups of 1000 termite workers alive ([2]; 3 Months, Calco oil blue V 100 ppm + Diflubenzuron 175 ppm): 1
- Groups of 1000 termite workers alive ([2]; 3 Months, Calco oil blue V 225 ppm + Diflubenzuron 50 ppm): 0
- Groups of 1000 termite workers alive ([2]; 3 Months, Calco oil blue V 500 ppm + Diflubenzuron 50 ppm): 3
- effect on molting of immature termites ([2]; after a month and a half, 50 ppm or 100 ppm calco blue + 175 ppm diflubenzuron): immature termites molted prematurely
- effect on molting of immature termites ([2]; after a month, 225 ppm calco blue + 50 ppm diflubenzuron): immature termites molted prematurely
- time to mortality of a 1000-worker colony ([2]; calco blue + diflubenzuron combination, depending on health and age of the colony): about 4 weeks
- palatability of the bait ([2]; calco blue concentrations above 750 ppm): unpalatable
- Bait consumption ([2]; calco blue concentrations above 1000 ppm): consumption is almost nonexistent
- time some termite colonies required to begin feeding on the formulations ([2]; concentration of blue >225 ppm): more than 8 hrs
- time until experimental colony was dead ([2]; exposure to formulation containing calco oil blue V and diflubenzuron, control boxes alive after 3 months): about two months and a half
- Bait consumption ([3]; Site 1 (Water Oak), day 7): 0 g
- Bait consumption ([3]; Site 1 (Water Oak), day 14): 150 g
- Bait consumption ([3]; Site 1 (Water Oak), day 21): 350 g
- Bait consumption ([3]; Site 1 (Water Oak), day 27): 400 g
- Bait consumption ([3]; Site 1 (Water Oak), day 46): 400 g
- Bait consumption ([3]; Site 1 (Water Oak), day 56): 100 g
- Bait consumption ([3]; Site 1 (Water Oak), day 73): 0 g
- Bait consumption ([3]; Site 1 (Water Oak), day 83): 0 g
- Bait consumption ([3]; Site 1 (Water Oak), day 102): 0 g
- Bait consumption ([3]; Site 1 (Water Oak), day 159): 0 g
- Bait consumption ([3]; Site 1 (Water Oak), day 221): 0 g
- Bait consumption ([3]; Site 1 (Water Oak), day 251): 0 g
- Bait consumption ([3]; Site 1 (Water Oak), day 281): 0 g
- Bait consumption ([3]; Site 2 (Ligastrum), day 7): 0 g
- Bait consumption ([3]; Site 2 (Ligastrum), day 14): 200 g
- Bait consumption ([3]; Site 2 (Ligastrum), day 21): 450 g
- Bait consumption ([3]; Site 2 (Ligastrum), day 27): 300 g
- Bait consumption ([3]; Site 2 (Ligastrum), day 46): 250 g
- Bait consumption ([3]; Site 2 (Ligastrum), day 56): 350 g
- Bait consumption ([3]; Site 2 (Ligastrum), day 73): 250 g
- Bait consumption ([3]; Site 2 (Ligastrum), day 83): 300 g
- Bait consumption ([3]; Site 2 (Ligastrum), day 102): 400 g
- Bait consumption ([3]; Site 2 (Ligastrum), day 159): 200 g
- Bait consumption ([3]; Site 2 (Ligastrum), day 221): 0 g
- Bait consumption ([3]; Site 2 (Ligastrum), day 251): 0 g
- Bait consumption ([3]; Site 2 (Ligastrum), day 281): 0 g
- time termite workers remained visibly colored after removing the blue colored bait formulation ([3]; field, 250 ppm): 1 week
- marking of termites after feeding on colored bait matrix ([3]; field, 250 ppm colored bait matrix without diflubenzuron): visibly colored blue
- period to eliminate the colonies ([3]; field, calco oil blue bait followed by bait with 250 ppm chitin synthesis inhibitors): 2 months
- effect on termite colonies and termite activity ([3]; field, matrix with calco oil blue V alone, 250 ppm): did not kill the termite colonies nor reduce termite activity
